Measurements published in ChEMBL document CHEMBL1629573, “OPT-80 eliminates Clostridium difficile and is sparing of bacteroides species during treatment of C. difficile infection” (2009).
≈ marks a conversion by molar mass, not a printed value. Calls of active or inactive are those of the source. The calls are words filed in the database; no cut-off is given here.

Experiments:
Clostridioides difficile [1] = assay: Antimicrobial activity against Clostridium difficile obtained from patient with Clostridium difficile infection assessed as bacterial count per gram of wet stool at 125 mg/kg, po BID measured on day 4 by the two-tailed Wilcoxon matched-pair, signed-rank test; type: functional, organism-based; set-up: dose 125 mg/kg; settings: Feces
Clostridioides difficile [2] = assay: Antimicrobial activity against Clostridium difficile obtained from patient with Clostridium difficile infection assessed as bacterial count per gram of wet stool at 125 mg/kg, po BID measured on day 10 by the two-tailed Wilcoxon matched-pair, signed-rank test; type: functional, organism-based; set-up: dose 125 mg/kg; settings: Feces
Clostridioides difficile [3] = assay: Antimicrobial activity against Clostridium difficile obtained from patient with Clostridium difficile infection assessed as bacterial count per gram of wet stool at 125 mg/kg, po BID measured at 21 to 28 days by the two-tailed Wilcoxon matched-pair, signed-rank test; type: functional, Feces
Bacteroides [4] = assay: Antimicrobial activity against Bacteroides group obtained from patient with Clostridium difficile infection assessed as bacterial count per gram of wet stool at 125 mg/kg, po administered QID measured on day 10 by the two-tailed Wilcoxon matched-pair, signed-rank test; type: functional, Feces
Clostridioides difficile [5] = assay: Antimicrobial activity against Clostridium difficile obtained from patient with Clostridium difficile infection assessed as reduction in bacterial cytotoxin B in patients at 200 mg/kg, po BID measured at 21 to 28 days by the two-tailed Wilcoxon matched-pair, signed-rank test; type: functional, organism-based; set-up: dose 200 mg/kg
Clostridioides difficile [6] = assay: Antimicrobial activity against Clostridium difficile obtained from patient with Clostridium difficile infection assessed as bacterial count per gram of wet stool at 200 mg/kg, po BID measured on day 10 by the two-tailed Wilcoxon matched-pair, signed-rank test; type: functional, organism-based; set-up: dose 200 mg/kg; settings: Feces
Clostridioides difficile [7] = assay: Antimicrobial activity against Clostridium difficile obtained from patient with Clostridium difficile infection assessed as bacterial count per gram of wet stool at 200 mg/kg, po BID measured at 21 to 28 days by the two-tailed Wilcoxon matched-pair, signed-rank test; type: functional, Feces
Bacteroides [8] = assay: Antimicrobial activity against Bacteroides group obtained from patient with Clostridium difficile infection assessed as bacterial count per gram of wet stool at 200 mg/kg, po BID measured on day 10 by the two-tailed Wilcoxon matched-pair, signed-rank test; type: functional, Feces
Bacteroides [9] = assay: Antimicrobial activity against Bacteroides group obtained from patient with Clostridium difficile infection assessed as bacterial count per gram of wet stool at 100 mg/kg, po BID measured on day 10 by the two-tailed Wilcoxon matched-pair, signed-rank test; type: functional, Feces
Clostridioides difficile [10] = assay: Antimicrobial activity against Clostridium difficile obtained from patient with Clostridium difficile infection assessed as bacterial count per gram of wet stool at 50 mg/kg, po BID measured on day 4 by the two-tailed Wilcoxon matched-pair, signed-rank test; type: functional, organism-based; set-up: dose 50 mg/kg; settings: Feces
Clostridioides difficile [11] = assay: Antimicrobial activity against Clostridium difficile; type: functional
Bacteroides sp. [12] = assay: Antimicrobial activity against […] Bacteroides sp.; type: functional
Clostridioides difficile [13] = assay: Antimicrobial activity against Clostridium difficile obtained from patient with Clostridium difficile infection assessed as bacterial count per gram of wet stool at 100 mg/kg, po BID measured on day 4 by the two-tailed Wilcoxon matched-pair, signed-rank test; type: functional, organism-based; set-up: dose 100 mg/kg; settings: Feces
Bacteroides sp. [14] = assay: Antimicrobial activity against […] gram-negative Bacteroides sp.; type: functional
Clostridioides difficile [15] = assay: Antimicrobial activity against Clostridium difficile obtained from patient with Clostridium difficile infection assessed as bacterial count per gram of wet stool at 100 mg/kg, po BID measured at 21 to 28 days by the two-tailed Wilcoxon matched-pair, signed-rank test; type: functional, Feces
Clostridioides difficile [16] = assay: Antimicrobial activity against Clostridium difficile obtained from patient with Clostridium difficile infection assessed as bacterial count per gram of wet stool at 200 mg/kg, po BID measured on day 4 by the two-tailed Wilcoxon matched-pair, signed-rank test; type: functional, organism-based; set-up: dose 200 mg/kg; settings: Feces
Clostridioides difficile [17] = assay: Antimicrobial activity against Clostridium difficile obtained from patient with Clostridium difficile infection assessed as bacterial count per gram of wet stool at 100 mg/kg, po BID measured on day 10 by the two-tailed Wilcoxon matched-pair, signed-rank test; type: functional, organism-based; set-up: dose 100 mg/kg; settings: Feces
Bacteroides [18] = assay: Antimicrobial activity against Bacteroides group obtained from patient with Clostridium difficile infection assessed as bacterial count per gram of wet stool at 50 mg/kg, po BID measured on day 10 by the two-tailed Wilcoxon matched-pair, signed-rank test; type: functional, Feces
Clostridioides difficile [19] = assay: Antimicrobial activity against Clostridium difficile obtained from patient with Clostridium difficile infection assessed as reduction in bacterial cytotoxin B in patients at 100 mg/kg, po BID measured at 21 to 28 days by the two-tailed Wilcoxon matched-pair, signed-rank test; type: functional, organism-based; set-up: dose 100 mg/kg
Clostridioides difficile [20] = assay: Antimicrobial activity against Clostridium difficile obtained from patient with Clostridium difficile infection assessed as bacterial count per gram of wet stool at 50 mg/kg, po BID measured at 21 to 28 days by the two-tailed Wilcoxon matched-pair, signed-rank test; type: functional, Feces
Clostridioides difficile [21] = assay: Antimicrobial activity against Clostridium difficile obtained from patient with Clostridium difficile infection assessed as bacterial count per gram of wet stool at 200 mg/kg, po BID measured on day 8 by the two-tailed Wilcoxon matched-pair, signed-rank test; type: functional, organism-based; set-up: dose 200 mg/kg; settings: Feces
Clostridioides difficile [22] = assay: Antimicrobial activity against Clostridium difficile obtained from patient with Clostridium difficile infection assessed as bacterial count per gram of wet stool at 50 mg/kg, po BID measured on day 10 by the two-tailed Wilcoxon matched-pair, signed-rank test; type: functional, organism-based; set-up: dose 50 mg/kg; settings: Feces

`CN[C@H](CC(C)C)C(=O)N[C@H]1C(=O)N[C@@H](CC(N)=O)C(=O)N[C@H]2C(=O)N[C@H]3C(=O)N[C@H](C(=O)N[C@H](C(=O)O)c4cc(O)cc(O)c4-c4cc3ccc4O)[C@H](O)c3ccc(c(Cl)c3)Oc3cc2cc(c3O[C@@H]2O[C@H](CO)[C@@H](O)[C@H](O)[C@H]2O[C@H]2C[C@](C)(N)[C@H](O)[C@H](C)O2)Oc2ccc(cc2Cl)[C@H]1O` [VANCOMYCIN] was tested, and the Activity (Clostridioides difficile [1]) was “Active”, the Activity (Clostridioides difficile [2]) was “Active” and the log10cfu (Clostridioides difficile [3]) was 5.4. It also gave a log10cfu (Bacteroides [4]) of 3.6.

With `CCc1c(Cl)c(O)c(Cl)c(O)c1C(=O)O[C@H]1[C@H](O)[C@H](OC)[C@H](OC/C2=C\C=C\C[C@H](O)/C(C)=C/[C@H](CC)[C@@H](O[C@@H]3OC(C)(C)[C@@H](OC(=O)C(C)C)[C@H](O)[C@@H]3O)/C(C)=C/C(C)=C/C[C@@H]([C@@H](C)O)OC2=O)O[C@@H]1C` [FIDAXOMICIN] the Activity (Clostridioides difficile [5]) was “Active”, the Activity (Clostridioides difficile [6]) was “Active” and the log10cfu (Clostridioides difficile [7]) was 3.1. The log10cfu (Bacteroides [8]) was 7.3, the log10cfu (Bacteroides [9]) was 6.3 and the Activity (Clostridioides difficile [10]) was “Active”. For the same compound, the MIC90 (Clostridioides difficile [11]) was 0.12 µg/mL (≈ 0.113 µM), the MIC90 (Bacteroides sp. [12]) was greater than 1020 µg/mL and the Activity (Clostridioides difficile [13]) was “Active”. The MIC90 (Bacteroides sp. [14]) was greater than 1020 µg/mL, the log10cfu (Clostridioides difficile [15]) was 3.6 and the Activity (Clostridioides difficile [16]) was “Active”. The Activity (Clostridioides difficile [17]) was “Active”, the log10cfu (Bacteroides [18]) was 8.2 and the Activity (Clostridioides difficile [19]) was “Active”. The log10cfu (Clostridioides difficile [20]) was 3.9, the Activity (Clostridioides difficile [21]) was “Active” and the Activity (Clostridioides difficile [22]) was “Active”.
